Test results from ChEMBL document CHEMBL1129278, “Binding of arylpiperazines, (aryloxy)propanolamines, and tetrahydropyridylindoles to the 5-HT1A receptor: contribution of the molecular lipophilicity potential to three-dimensional quantitative structure-affinity relationship models” (J Med Chem, 1996).

These molecules were tested against T1, 5-hydroxytryptamine receptor 1A (Rattus norvegicus, UniProt P19327).
T1 sequence (P19327 whole entry): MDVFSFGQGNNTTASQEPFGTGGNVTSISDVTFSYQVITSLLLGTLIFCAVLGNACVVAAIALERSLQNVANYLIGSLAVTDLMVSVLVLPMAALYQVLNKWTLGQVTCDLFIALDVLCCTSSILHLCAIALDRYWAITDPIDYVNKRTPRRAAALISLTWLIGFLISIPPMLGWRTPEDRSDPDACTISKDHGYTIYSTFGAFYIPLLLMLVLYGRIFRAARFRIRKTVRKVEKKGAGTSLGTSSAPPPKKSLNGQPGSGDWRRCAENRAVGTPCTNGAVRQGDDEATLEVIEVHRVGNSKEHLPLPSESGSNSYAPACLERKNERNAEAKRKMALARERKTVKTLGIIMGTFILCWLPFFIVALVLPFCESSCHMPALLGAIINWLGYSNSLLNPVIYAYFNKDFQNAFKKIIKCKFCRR

Q: For `CCCN(CCCCN1C(=O)CC2(CCCC2)CC1=O)C1COc2cccc(OC)c2C1` (stereo not drawn), which Ki is on record?
A: 0.1 nM

Q: Which Ki does the source give for `CCCN(CCC)C1CCc2cccc(OC)c2C1` (stereo not drawn) here?
A: 2.63 nM

Q: How did the Ki turn out when `NCCc1c[nH]c2ccc(C(N)=O)cc12` was run?
A: 0.295 nM

Q: How did the Ki turn out when `Oc1ccc2cccc(N3CCNCC3)c2c1` was run?
A: 3.31 nM

Q: For `Cn1cc(CCN)c2c3c(ccc21)OCCC3`, which Ki is on record?
A: 2630 nM

Q: For `C=CCN(CCC)C1CCc2cccc(OS(=O)(=O)C(F)(F)F)c2C1` (stereo not drawn), which Ki is on record?
A: 9.55 nM

Q: `CC(C)CN1CCN(c2cccc(Cl)c2)CC1` was tested. Which Ki did it give?
A: 64.6 nM

Q: Which Ki does the source give for `CCCN(CCC)C1COc2ccccc2C1` (stereo not drawn) here?
A: 200 nM

Q: For `CCCN(CCCCNS(=O)(=O)c1ccc(C)cc1)C1COc2cccc(OC)c2C1` (stereo not drawn), which Ki is on record?
A: 1 nM

Q: For `NCCc1c[nH]c2ccc(N)cc12`, which Ki is on record?
A: 708 nM

Q: With `Oc1ccc2[nH]cc(C3=CCNCC3)c2c1` as the molecule, how does the Ki read?
A: 15.1 nM

Q: Which Ki does the source give for `N#Cc1ccc2[nH]cc(C3=CCNCC3)c2c1` here?
A: 16.2 nM

Q: For `CCCN(CCC)C1CCc2cccc(CO)c2C1` (stereo not drawn), which Ki is on record?
A: 129 nM

Q: Which Ki does the source give for `CN(C)CCc1cn(C)c2ccc3c(c12)CCCO3` here?
A: 2690 nM

Q: `C#Cc1cccc2c1CC(N(CCC)CCC)CC2` (stereo not drawn) was tested. Which Ki did it give?
A: 15.8 nM

Q: How did the Ki turn out when `C=C=CN1CCN(c2cccc(Cl)c2)CC1` was run?
A: 251 nM

Q: `COc1ccccc1N1CCN(CCCc2ccccc2)CC1` was tested. Which Ki did it give?
A: 3.72 nM

Q: How did the Ki turn out when `CCCN(CCC)C1CCc2cccc(C3CCCCC3)c2C1` (stereo not drawn) was run?
A: 24 nM

Q: Which Ki does the source give for `COc1ccccc1N1CCN(CCN2C(=O)c3ccccc3C2=O)CC1` here?
A: 1000 nM

Q: With `CC(C)(C)NCC(O)COc1ccc2c(c1)C[C@H](O)[C@H](O)C2` (stereo partly drawn) as the molecule, how does the Ki read?
A: 1070 nM

Q: With `Cc1[nH]c2ccc(O)cc2c1CCN` as the molecule, how does the Ki read?
A: 2510 nM

Q: For `CCCN(CCNC(C)=O)C1COc2cccc(OC)c2C1` (stereo not drawn), which Ki is on record?
A: 20 nM

Q: How did the Ki turn out when `NCCCCN1CCN(c2ccccc2)CC1` was run?
A: 6030 nM

Q: For `CC(C)NCC(O)COc1cccc2[nH]c(C#N)cc12` (stereo not drawn), which Ki is on record?
A: 2.14 nM

Q: With `CCCN(CCCCN1C(=O)CC2(CCCC2)CC1=O)C1COc2ccccc2C1` (stereo not drawn) as the molecule, how does the Ki read?
A: 1 nM

Q: How did the Ki turn out when `CCCCN1CCN(c2ccccc2OC)CC1` was run?
A: 129 nM

Q: For `O=C1CC2(CCCC2)CC(=O)N1CCN1CCN(c2ncccn2)CC1`, which Ki is on record?
A: 151 nM

Q: Which Ki does the source give for `CC(C)NCC(O)COc1ccc(CCOCCOC(C)C)cc1` (stereo not drawn) here?
A: 10000 nM

Q: With `CCCN(CCC)C1CCc2cccc(C(=O)OC)c2C1` (stereo not drawn) as the molecule, how does the Ki read?
A: 1.7 nM

Q: With `COc1ccccc1N1CCN(CCCCNC2CC3CCC2C3)CC1` (stereo not drawn) as the molecule, how does the Ki read?
A: 3.98 nM

Q: `COc1ccccc1N1CCN(CCCN2C(=O)c3ccccc3C2=O)CC1` was tested. Which Ki did it give?
A: 20 nM

Q: `CC(C)C(=O)N1CCN(c2cccc(Cl)c2)CC1` was tested. Which Ki did it give?
A: 100000 nM

Q: Which Ki does the source give for `Fc1ccc2[nH]cc(C3=CCNCC3)c2c1` here?
A: 32.4 nM

Q: How did the Ki turn out when `Cc1ccc(OCC(O)CNC(C)C)c2c1CCC2` (stereo not drawn) was run?
A: 19100 nM

Q: For `CCCN(CCC)C1CCc2cccc(C(=O)O)c2C1` (stereo not drawn), which Ki is on record?
A: 302 nM

Q: `CCCN(CCCCCCN1C(=O)CC2(CCCC2)CC1=O)C1COc2cccc(OC)c2C1` (stereo not drawn) was tested. Which Ki did it give?
A: 0.501 nM

Q: For `O=C1c2ccccc2C(=O)N1CCN1CCN(c2ccccc2)CC1`, which Ki is on record?
A: 10000 nM

Q: For `COc1ccccc1N1CCN(CCCCNC(=O)C2CCCCC2)CC1`, which Ki is on record?
A: 0.603 nM

Q: How did the Ki turn out when `CCCN(CCCCN1C(=O)CC(C)(C)CC1=O)C1COc2cccc(OC)c2C1` (stereo not drawn) was run?
A: 2 nM

Q: How did the Ki turn out when `CCCNC1CCc2cccc(OC)c2C1` (stereo not drawn) was run?
A: 4.79 nM

Q: `COc1ccccc1N1CCN(CCc2ccccc2)CC1` was tested. Which Ki did it give?
A: 1.82 nM

Q: For `CCCN(CCC)CC(O)CO` (stereo not drawn), which Ki is on record?
A: 2750 nM

Q: Which Ki does the source give for `CCCN(C1COc2cccc(OC)c2C1)N1C(=O)c2ccccc2S1(=O)=O` (stereo not drawn) here?
A: 0.501 nM

Q: For `CC(O)CN(CC(C)O)CC(O)COc1cccc2ccccc12` (stereo not drawn), which Ki is on record?
A: 1320 nM

Q: For `CN(C)CCc1c[nH]c2cc3c(cc12)CCCO3`, which Ki is on record?
A: 603 nM

Q: `NCCc1c[nH]c2ccc3c(c12)CCCO3` was tested. Which Ki did it give?
A: 302 nM

Q: `CN1CC=C(c2c[nH]c3ccc(Br)cc23)CC1` was tested. Which Ki did it give?
A: 15.1 nM

Q: Which Ki does the source give for `O=C1CC2(CCCC2)CC(=O)N1CCCN1CCN(c2ncccn2)CC1` here?
A: 214 nM

Q: With `CN1CCN(c2nc3cc(C(F)(F)F)ccc3n3cccc23)CC1` as the molecule, how does the Ki read?
A: 9.55 nM

Q: Which Ki does the source give for `COc1ccccc1N1CCN(CCCCN2C(=O)CC3(CCCC3)CC2=O)CC1` here?
A: 2 nM

Q: How did the Ki turn out when `Brc1ccc2[nH]cc(C3=CCNCC3)c2c1` was run?
A: 6.46 nM

Q: With `CN(C)CC(O)COc1cccc2ccccc12` (stereo not drawn) as the molecule, how does the Ki read?
A: 347 nM

Q: Which Ki does the source give for `COc1ccccc1OCC(O)CN(C)C` (stereo not drawn) here?
A: 3020 nM

Q: Which Ki does the source give for `CCCN(CCCN1C(=O)CC2(CCCC2)CC1=O)C1COc2cccc(OC)c2C1` (stereo not drawn) here?
A: 0.501 nM

Q: Which Ki does the source give for `CN1CCN(c2cccc3c2OCCO3)CC1` here?
A: 22.9 nM

Q: With `COc1ccccc1N1CCN(CCCOc2cccc3ccccc23)CC1` as the molecule, how does the Ki read?
A: 8.91 nM

Q: Which Ki does the source give for `CNCCc1c[nH]c2ccc(O)cc12` here?
A: 4.9 nM

Q: With `CN1CC=C(c2c[nH]c3ccc(N)cc23)CC1` as the molecule, how does the Ki read?
A: 24500 nM

Q: Which Ki does the source give for `c1ccc2cc(N3CCNCC3)ccc2c1` here?
A: 3240 nM

Q: With `CCCN(CCCCNC(=O)c1ccc(F)cc1)C1COc2cccc(OC)c2C1` (stereo not drawn) as the molecule, how does the Ki read?
A: 0.2 nM

Q: With `CCCN(CCC)C1COc2cccc(O)c2C1` (stereo not drawn) as the molecule, how does the Ki read?
A: 2 nM

Q: With `COc1ccc2cccc(N3CCN(CCNC(=O)c4cccs4)CC3)c2c1` as the molecule, how does the Ki read?
A: 0.562 nM

Q: `CCCN(CCCNS(=O)(=O)c1ccc(C)cc1)C1COc2cccc(OC)c2C1` (stereo not drawn) was tested. Which Ki did it give?
A: 1.51 nM

Q: For `O=C1C=CC(c2[nH]c3ccccc3c2C2=CCNCC2)=NC1`, which Ki is on record?
A: 1510 nM

Q: How did the Ki turn out when `CC(CN)c1c[nH]c2ccc(O)cc12` (stereo not drawn) was run?
A: 85.1 nM

Q: How did the Ki turn out when `CCCCCCCCN1CCN(c2ccccc2)CC1` was run?
A: 11.2 nM

Q: For `FC(F)(F)c1ccc2c(c1)nc(N1CCNCC1)c1cccn12`, which Ki is on record?
A: 18.6 nM

Q: With `O=C1c2ccccc2C(=O)N1CCCCN1CCN(c2ccccn2)CC1` as the molecule, how does the Ki read?
A: 6.17 nM

Q: Which Ki does the source give for `CCCN(CCC)C1CCc2cccc(C(=O)C3CCCCC3)c2C1` (stereo not drawn) here?
A: 15.8 nM

Q: For `CCCCN1CCN(c2cccc3ccccc23)CC1`, which Ki is on record?
A: 7.08 nM

Q: `COc1ccccc1N1CCN(CCCCNc2ccc([N+](=O)[O-])c3nonc23)CC1` was tested. Which Ki did it give?
A: 0.398 nM

Q: Which Ki does the source give for `CCCN(CCCON1C(=O)CC2(CCCC2)CC1=O)C1COc2cccc(OC)c2C1` (stereo not drawn) here?
A: 0.501 nM

Q: With `O=C1c2ccccc2S(=O)(=O)N1CCCCN1CCN(c2ccccn2)CC1` as the molecule, how does the Ki read?
A: 6.92 nM

Q: With `Clc1ccc2[nH]cc(C3=CCNCC3)c2c1` as the molecule, how does the Ki read?
A: 13.2 nM

Q: `CCCN(CCCCNC(=O)c1ccccc1OC)C1COc2cccc(OC)c2C1` (stereo not drawn) was tested. Which Ki did it give?
A: 0.501 nM

Q: How did the Ki turn out when `c1ccc2c(c1)CCC2N1CCN(c2cccc3c2OCCO3)CC1` (stereo not drawn) was run?
A: 1.82 nM

Q: Which Ki does the source give for `CN1CC=C(c2c[nH]c3ccc(Cl)cc23)CC1` here?
A: 26.3 nM

Q: With `CCCN(CCCCN1C(=O)c2ccccc2C1=O)C1COc2cccc(OC)c2C1` (stereo not drawn) as the molecule, how does the Ki read?
A: 2.51 nM

Q: How did the Ki turn out when `CCCN(CCN1C(=O)CC2(CCCC2)CC1=O)C1COc2cccc(OC)c2C1` (stereo not drawn) was run?
A: 15.1 nM

Q: `CN1CC=C(c2c[nH]c3ccc([N+](=O)[O-])cc23)CC1` was tested. Which Ki did it give?
A: 37.2 nM

Q: `COc1ccccc1N1CCN(CCCCNC(=O)C(C)c2ccccc2)CC1` (stereo not drawn) was tested. Which Ki did it give?
A: 10 nM

Q: With `COc1ccccc1N1CCN(CCCCNCc2ccccc2)CC1` as the molecule, how does the Ki read?
A: 60.3 nM

Q: Which Ki does the source give for `CCCN(CCCCN1C(=O)c2ccccc2C1=O)C1COc2cccc(O)c2C1` (stereo not drawn) here?
A: 44.7 nM

Q: Which Ki does the source give for `COc1ccccc1N1CCN(CCCCc2ccccc2)CC1` here?
A: 1 nM

Q: How did the Ki turn out when `Clc1cccc(N2CCN(C3CC3)CC2)c1` was run?
A: 158 nM

Q: Which Ki does the source give for `CCCN(CCCCN1CCOCC1)C1COc2cccc(OC)c2C1` (stereo not drawn) here?
A: 3.98 nM

Q: `CCCCCCCCN1CCN(c2cccc3c2OCCO3)CC1` was tested. Which Ki did it give?
A: 1 nM

Q: For `CC(C)(C)NCC(O)COc1cccc2c1NC(=O)CC2` (stereo not drawn), which Ki is on record?
A: 224 nM

Q: How did the Ki turn out when `CCCN(CCC)C1CCc2cccc(C(C)=O)c2C1` (stereo not drawn) was run?
A: 0.708 nM

Q: With `CN1CCN(c2cccc3ccoc23)CC1` as the molecule, how does the Ki read?
A: 7.94 nM

Q: How did the Ki turn out when `CNCC(O)CO` (stereo not drawn) was run?
A: 3310 nM

Q: `CCCN(CCC)CC(O)COc1cccc2ccccc12` (stereo not drawn) was tested. Which Ki did it give?
A: 447 nM

Q: For `CCCN(CCCN1C(=O)c2ccccc2C1=O)C1COc2cccc(OC)c2C1` (stereo not drawn), which Ki is on record?
A: 50.1 nM

Q: Which Ki does the source give for `O=C(NCCN1CCN(/C(O)=C2/COCCO2)CC1)c1ccc(F)cc1` here?
A: 9.12 nM

Q: How did the Ki turn out when `O=C1c2ccccc2C(=O)N1CCCCN1CCN(c2ccccc2)CC1` was run?
A: 8.51 nM

Q: `Cc1ccc2[nH]cc(C3=CCN(C)CC3)c2c1` was tested. Which Ki did it give?
A: 31.6 nM

Q: For `CC(C)NCC(O)COc1ccccc1` (stereo not drawn), which Ki is on record?
A: 170 nM

Q: For `COc1ccccc1N1CCNCC1`, which Ki is on record?
A: 12.9 nM
